Assay [1] concerns human leukemia MV4-11 cell line. Nature of the assay: Antiproliferative assay in vitro, MTT, MV4-11. It counts as cell-based. Particulars: mean ± SD. Here is the method: (§1) MV4-11 cells were cultured in the RPMI 1640 medium (IIET, Wroclaw) supplemented with 2 mM L-glutamine and 1.0 mM sodium pyruvate, 10% fetal bovine serum (all from Sigma Aldrich, Germany). HCT116 and A549 cells were cultured in the RPMI1640 + OptiMEM (50:50) medium (IIET, Wroclaw) supplemented with 2 mM L-glutamine and 5% fetal bovine serum (all from Sigma Aldrich, Germany), BALB/3T3 cells were cultured in Dulbecco medium (IIET, Wroclaw) supplemented with 2 mM L-glutamine and 1.0 mM sodium pyruvate, 10% fetal bovine serum (all from Sigma Aldrich, Germany). All culture medium was supplemented with 100 units/mL penicillin and […] streptomycin (both from Polfa, Tarchomin S.A., Warsaw, Poland). All cell lines were grown at 37 °C with 5% CO2 humidified atmosphere.
(§2) Test solutions of the compounds tested (1 mg/mL) were prepared by dissolving the substances in 100 μL of DMSO completed with 900 μL of tissue culture medium. Afterward, the tested compounds were diluted in culture medium to reach the final concentrations of 10, 1, 0.1, 0.01 μg/mL. Twenty four hours prior to the addition of the tested compounds, the cells were plated in 96-well plates (Sarstedt, Germany) at a density of 1 × 10^4 or 0.5× 10^4 (HCT116) cells per well. The assay was performed after 72 h of exposure to varying concentrations of the tested agents. The in vitro cytotoxic effect of all agents was examined using the MTT (for MV4-11 cell line) or SRB (for A549, HCT116 and BALB/3T3 cell lines) assay. The results were calculated as an IC50 (inhibitory concentration 50)–the dose of tested agent that inhibits proliferation of 50% of the cell population. Each compound in each concentration was tested in triplicate in a single experiment, which was repeated 3–5 times.

Assay [2] concerns HCT116, human colon cancer cell line. Nature of the assay: Antiproliferative assay in vitro, SRB, HCT116. The assay is classed as cell-based. To be noted: mean ± SD. Here is the method:
as §1, §2

Assay [3] has as its system A549, human non-small-cell lung adenocarcinoma cell line. Description: Antiproliferative assay in vitro, SRB, A549. It counts as cell-based. Particulars: mean ± SD. Here is the method: as §1, §2
Assay [4] deals with normal mice fibroblast BALB/3T3. Description: Cytotoxicity against normal fibroblasts, SRB, BALB/3T3. The assay is classed as cell-based, mouse. To be noted: mean ± SD. As for the experimental part:
as §1, §2

Assay [5] has as its system HCT116, human colon cancer cell line. More on the design: method as in PMID 21207937. Particulars: cited from earlier work.
Assay [6] deals with A549, human non-small-cell lung adenocarcinoma cell line. More on the design: method as in PMID 21207937. To be noted: cited from earlier work.
Assay [7] concerns human leukemia MV4-11 cell line. Particulars: MV4-11 human leukemia cell line; cited from earlier work.
[8] abbreviates: Homo sapiens, MV4-11, 72 h exposure.
The mark [9] stands for this setting: Homo sapiens, HCT-116, 72 h exposure.
The mark [10] stands for this setting: Homo sapiens, A549, 72 h exposure.
Setting [11] is: Mus musculus, BALB/3T3, 72 h exposure.

Our source for the IC50 values is PMC6271626, “Design, Synthesis, and Biological Evaluation of Artemisinin-Indoloquinoline Hybrids as Potent Antiproliferative Agents” (Molecules, 2014).

Several values for one entry are separate records, joined by “and”; a condition that tells them apart may be missing. Equal entries are not always repeated. Structures can show the parent of a compound that is named as a salt. Where two headings read alike, the source gives them in different places.

As for `COC(=O)c1ccc2c(c1)c(NCCCNC(=O)CCC(=O)OC1OC3OC4(C)CCC5C(C)CCC(C1C)C35OO4)c1c3ccccc3nc-1n2C` (centres unmarked) [Compound 7d, Artesunate-[methyl 11-(3-aminopropylamino)-5-methyl-5H-indolo[2,3-b]quinoline-2-carboxylate] hybride], the IC50 was 148 ± 15 nM in assay [1] (72 h exposure), 1760 ± 329 nM in assay [2] (72 h exposure), 3660 ± 535 nM in assay [3] (72 h exposure) and 4950 ± 220 nM in assay [4] (72 h exposure).

As to `CC1CCC2C(C)C(OC(=O)CCC(=O)NCCCNc3c4ccccc4nc4c3[nH]c3ccccc34)OC3OC4(C)CCC1C32OO4` (centres unmarked) [Compound 8, Artesunate-[11-(3-aminopropylamino)-10H-indolo[3,2-b]quinoline] hybrid], the IC50 in assay [1] (setting [8]) was found to be 286 ± 127 nM; in assay [2] (setting [9]), 557 ± 85 nM; in assay [3] (setting [10]), 1330 ± 586 nM; in assay [4] (setting [11]), 2720 ± 731 nM.

Take `NCCCNc1nc2ccccc2c2[nH]c3ccccc3c12` [Compound 6, 6-(3-aminopropylamino)-11H-indolo[3,2-c]quinoline]: the IC50 in assay [1] (setting [8]) worked out at 124 ± 10 nM; in assay [2] (setting [9]), 258 ± 107 nM; in assay [3] (setting [10]), 172 ± 52 nM; in assay [4] (setting [11]) it was 1050 ± 127 nM.

Consider `CC1CCC2C(C)C(OC(=O)CCC(=O)NCC(C)(C)CNc3c4c5ccccc5nc-4n(C)c4ccc(Cl)cc34)OC3OC4(C)CCC1C32OO4` (centres unmarked) [Compound 7b, Artesunate-[N^1-(2-chloro-5-methyl-5H-indolo[2,3-b]quinolin-11-yl)-2,2-dimethjylpropane-1,3-diamine] hybrid], for which the IC50 in assay [1] (72 h exposure) is ~72 nM and 72 nM; in assay [2] (72 h exposure) it was 893 ± 397 nM; in assay [3] (72 h exposure) it was 4560 ± 2090 nM; in assay [4] (72 h exposure), 6420 ± 996 nM.

For the compound `CC1CCC2C(C)C(OC(=O)CCC(=O)NCCCNc3nc4ccccc4c4[nH]c5ccccc5c34)OC3OC4(C)CCC1C32OO4` (centres unmarked) [Compound 9], the half-maximal inhibitory concentration (IC50) in assay [1] (setting [8]) stood at 128 ± 36 nM; in assay [2] (setting [9]), 855 ± 235 nM; in assay [3] (setting [10]) it was 1810 ± 516 nM; in assay [4] (setting [11]), 4980 ± 471 nM.

For `N.N.[Cl][Pt][Cl]` [cisplatin, reference compound], the half-inhibitory concentration (IC50) in assay [1] (72 h exposure) was determined as 2820 ± 450 nM; in assay [2] (72 h exposure), 9460 ± 1300 nM; in assay [3] (72 h exposure), 8960 ± 3330 nM; in assay [4] (72 h exposure), 9500 ± 500 nM.

Compound `CC1CCC2C(C)C(OC(=O)CCC(=O)NCC(C)(C)CNc3c4c5ccccc5nc-4n(C)c4ccc(Br)cc34)OC3OC4(C)CCC1C32OO4` (centres unmarked) [Compound 7c, Artesunate-[N^1-(2-bromo-5-methyl-5H-indolo[2,3-b]quinolin-11-yl)-2,2-dimethylpropane-1,3-diamine] hybrid] came in with an IC50 in assay [1] (72 h exposure) of 242 ± 31 nM.

As to `CC1CCC2C(C)C(OC(=O)CCC(=O)NCCCNc3c4c5ccccc5nc-4n(C)c4ccccc34)OC3OC4(C)CCC1C32OO4` (centres unmarked) [Compound 7a, Artesunate-[N^1-(5-methyl-5H-indolo[2,3-b]quinolin-11-yl)propane-1,3-diamine] hybrid], half-maximal inhibition in assay [1] (72 h exposure) (IC50) required 286 ± 79 nM.

Turning to `C[C@H]1[C@@H](O)O[C@@H]2O[C@@]3(C)CC[C@H]4[C@H](C)CC[C@@H]1[C@@]24OO3` [DHA (2), dihydroartemisinin], the half-maximal inhibitory concentration (IC50) is 1340 ± 1060 nM in assay [5] and greater than 20000 nM in assay [6].

For `Cn1c2nc3ccccc3c-2c(NCCCN)c2ccccc21` [Compound 4a, N^1-(5-methyl-5H-indolo[2,3-b]quinolin-11-yl)propane-1,3-diamine], the IC50 in assay [7] is 66 ± 23 nM.

Take `COC(=O)c1ccc2c(c1)c(NCC(C)(C)CNC(=O)CCC(=O)OC1OC3OC4(C)CCC5C(C)CCC(C1C)C35OO4)c1c3ccccc3nc-1n2C` (centres unmarked) [Compound 7e, Artesunate-[methyl 11-(3-amino-2,2-dimethylpropylamino)-5-methyl-5H-indolo[2,3-b]quinoline-2-carboxylate] hybrid]: the IC50 in assay [1] (72 h exposure) stood at 75 ± 1 nM; in assay [2] (72 h exposure), 2210 ± 687 nM; in assay [3] (72 h exposure) it was 5060 ± 911 nM; in assay [4] (72 h exposure), 5940 ± 1160 nM.

In assay [1] (setting [8]), `COc1cccc2c1C(=O)c1c(O)c3c(c(O)c1C2=O)C[C@@](O)(C(=O)CO)C[C@@H]3O[C@H]1C[C@H](N)[C@H](O)[C@H](C)O1` [doxorubicin HCl, reference compound] showed a half-inhibitory concentration (IC50) of 6 ± 2 nM.

With `COC(=O)c1ccc2c(c1)c(NCCCN)c1c3ccccc3nc-1n2C` [Compound 4d, methyl 11-(3-aminopropylamino)-5-methyl-5H-indolo[2,3-b]quinoline-2-carboxylate], the IC50 is 130 ± 14 nM in assay [2] (setting [9]), 86 ± 20 nM in assay [7], 649 ± 80 nM in assay [3] (setting [10]) and 768 ± 155 nM in assay [4] (setting [11]).

The term IC50 denotes the concentration that gives 50% inhibition.
